Experimental data reported in the supplement of paper PMC12463676, “Small-molecule dissolution of stress granules by redox modulation benefits ALS models” (Nature Chemical Biology, 2025).

What was measured:
lipoamide = compound: NC(=O)CCCCC1CCSS1 [lipoamide]; test: thermal stability z-score vs DMSO; higher = more thermally stabilized by treatment; details: HeLa, lipoamide concentration 100 µM
Protocol: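 Cellular thermal proteome profiling in HeLa cells. Cells were treated with 100 µM lipoamide for 1 h, with or without 1 mM arsenate for a further 1 h, then heated to ten temperatures (37-66.3 °C), and soluble protein was quantified by TMT mass spectrometry relative to 0.1% DMSO controls. The thermal stability score (sum of log2 fold changes minus the abundance score) was transformed to a z-score; mean of n = 3 experiments.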

potassium arsenate = compound: O=[As]([O-])(O)O.[K+] [potassium arsenate]; test: as above; details: HeLa; arsenate concentration 1 mM
Protocol: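 Cellular thermal proteome profiling in HeLa cells treated with 1 mM arsenate for 1 h (DMSO pretreatment), heated to ten temperatures (37-66.3 °C). Soluble protein was quantified by TMT mass spectrometry relative to DMSO controls; the thermal stability score was transformed to a z-score; mean of n = 3 experiments.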

[1] = arsenate co-treatment: 1 mM arsenate 1 h
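Note: each temperature applied for 3 min, abundance score taken as mean log2 fold change at the two lowest temperatures, z-score obtained by mean subtraction and division by SD.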

Chain of UniProt Q9NRV9 (Q9NRV9 whole entry): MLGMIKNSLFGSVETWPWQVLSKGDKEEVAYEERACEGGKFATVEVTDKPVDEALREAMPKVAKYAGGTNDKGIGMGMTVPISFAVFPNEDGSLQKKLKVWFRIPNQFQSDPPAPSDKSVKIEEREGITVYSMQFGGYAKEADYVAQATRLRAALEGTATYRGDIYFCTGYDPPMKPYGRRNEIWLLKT
Chain of UniProt Q96IP4 (Q96IP4 whole entry): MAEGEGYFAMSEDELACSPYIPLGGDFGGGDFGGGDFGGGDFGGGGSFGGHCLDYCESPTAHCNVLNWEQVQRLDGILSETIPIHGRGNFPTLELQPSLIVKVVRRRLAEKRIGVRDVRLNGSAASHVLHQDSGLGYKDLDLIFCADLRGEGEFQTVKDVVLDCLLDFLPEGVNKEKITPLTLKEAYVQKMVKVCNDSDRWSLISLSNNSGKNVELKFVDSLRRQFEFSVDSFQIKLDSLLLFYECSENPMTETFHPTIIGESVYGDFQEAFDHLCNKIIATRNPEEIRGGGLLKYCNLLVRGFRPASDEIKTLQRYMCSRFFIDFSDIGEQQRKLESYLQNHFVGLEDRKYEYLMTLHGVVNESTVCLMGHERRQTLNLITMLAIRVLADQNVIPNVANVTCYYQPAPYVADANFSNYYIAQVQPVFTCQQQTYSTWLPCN
Chain of UniProt Q8N3X1 (Q8N3X1 whole entry): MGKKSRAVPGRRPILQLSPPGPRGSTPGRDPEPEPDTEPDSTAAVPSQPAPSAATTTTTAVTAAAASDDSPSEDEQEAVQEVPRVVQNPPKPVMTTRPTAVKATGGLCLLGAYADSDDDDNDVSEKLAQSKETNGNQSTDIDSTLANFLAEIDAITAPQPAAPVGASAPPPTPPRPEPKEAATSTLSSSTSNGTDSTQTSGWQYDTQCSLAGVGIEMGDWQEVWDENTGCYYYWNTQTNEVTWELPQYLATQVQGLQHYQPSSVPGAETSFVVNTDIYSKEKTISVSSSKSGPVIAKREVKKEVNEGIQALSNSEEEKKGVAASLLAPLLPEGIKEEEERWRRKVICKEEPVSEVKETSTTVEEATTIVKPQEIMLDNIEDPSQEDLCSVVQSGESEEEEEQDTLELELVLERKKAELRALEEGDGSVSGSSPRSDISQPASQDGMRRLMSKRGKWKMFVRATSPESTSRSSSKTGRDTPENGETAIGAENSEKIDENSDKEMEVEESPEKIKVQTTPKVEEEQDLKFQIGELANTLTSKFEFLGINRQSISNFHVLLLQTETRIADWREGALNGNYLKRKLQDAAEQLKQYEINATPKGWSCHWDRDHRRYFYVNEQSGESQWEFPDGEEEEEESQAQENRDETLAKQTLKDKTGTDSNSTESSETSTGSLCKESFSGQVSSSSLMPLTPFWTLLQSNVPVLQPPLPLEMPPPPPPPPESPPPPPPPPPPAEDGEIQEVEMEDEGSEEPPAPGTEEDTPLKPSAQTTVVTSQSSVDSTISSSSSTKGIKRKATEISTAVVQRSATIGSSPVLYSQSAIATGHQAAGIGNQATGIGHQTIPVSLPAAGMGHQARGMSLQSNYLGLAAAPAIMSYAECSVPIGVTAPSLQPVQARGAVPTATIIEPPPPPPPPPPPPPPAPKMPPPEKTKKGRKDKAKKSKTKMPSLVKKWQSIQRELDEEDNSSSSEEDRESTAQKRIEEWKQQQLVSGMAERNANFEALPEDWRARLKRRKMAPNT
Chain of UniProt Q96FJ2 (Q96FJ2 whole entry): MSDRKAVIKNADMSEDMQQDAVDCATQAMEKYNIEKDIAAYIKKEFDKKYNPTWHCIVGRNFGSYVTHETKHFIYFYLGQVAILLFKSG
Chain of UniProt Q9UGV2 (Q9UGV2 whole entry): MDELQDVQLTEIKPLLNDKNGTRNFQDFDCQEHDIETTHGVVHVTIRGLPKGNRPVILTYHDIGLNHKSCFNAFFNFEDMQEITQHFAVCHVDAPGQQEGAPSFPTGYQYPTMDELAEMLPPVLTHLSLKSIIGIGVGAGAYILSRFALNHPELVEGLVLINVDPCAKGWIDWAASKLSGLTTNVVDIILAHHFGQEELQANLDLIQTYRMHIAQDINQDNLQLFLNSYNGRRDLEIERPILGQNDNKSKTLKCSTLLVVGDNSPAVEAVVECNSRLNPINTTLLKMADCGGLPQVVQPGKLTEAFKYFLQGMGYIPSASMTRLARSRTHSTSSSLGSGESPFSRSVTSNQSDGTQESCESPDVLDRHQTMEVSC
Chain of UniProt P50583 (P50583 whole entry): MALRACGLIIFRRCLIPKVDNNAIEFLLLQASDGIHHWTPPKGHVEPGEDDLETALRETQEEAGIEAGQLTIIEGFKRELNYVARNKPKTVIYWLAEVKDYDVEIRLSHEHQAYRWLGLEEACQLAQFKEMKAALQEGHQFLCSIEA
Chain of UniProt O43854 (O43854 whole entry): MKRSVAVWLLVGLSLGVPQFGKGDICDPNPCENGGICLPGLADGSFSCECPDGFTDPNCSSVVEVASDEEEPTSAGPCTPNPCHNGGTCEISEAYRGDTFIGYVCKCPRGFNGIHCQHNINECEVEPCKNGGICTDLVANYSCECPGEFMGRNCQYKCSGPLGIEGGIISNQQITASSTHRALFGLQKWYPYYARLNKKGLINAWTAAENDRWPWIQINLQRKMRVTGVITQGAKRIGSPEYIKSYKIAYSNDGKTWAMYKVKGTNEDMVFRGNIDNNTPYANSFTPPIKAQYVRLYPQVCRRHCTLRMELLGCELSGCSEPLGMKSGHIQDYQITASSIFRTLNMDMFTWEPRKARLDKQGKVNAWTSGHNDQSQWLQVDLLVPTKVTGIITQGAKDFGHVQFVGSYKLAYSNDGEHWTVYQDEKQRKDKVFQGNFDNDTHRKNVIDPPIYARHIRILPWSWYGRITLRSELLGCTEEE
Chain of UniProt Q9Y314 (Q9Y314 whole entry): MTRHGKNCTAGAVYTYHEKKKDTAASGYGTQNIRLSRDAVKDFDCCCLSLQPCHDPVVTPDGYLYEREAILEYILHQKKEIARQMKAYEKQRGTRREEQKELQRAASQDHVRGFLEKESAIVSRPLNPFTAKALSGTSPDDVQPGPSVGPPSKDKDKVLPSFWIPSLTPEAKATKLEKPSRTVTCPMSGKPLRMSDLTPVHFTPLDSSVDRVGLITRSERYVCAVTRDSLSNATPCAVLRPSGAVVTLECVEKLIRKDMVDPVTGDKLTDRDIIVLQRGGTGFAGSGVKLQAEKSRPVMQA
Chain of UniProt O95674 (O95674 whole entry): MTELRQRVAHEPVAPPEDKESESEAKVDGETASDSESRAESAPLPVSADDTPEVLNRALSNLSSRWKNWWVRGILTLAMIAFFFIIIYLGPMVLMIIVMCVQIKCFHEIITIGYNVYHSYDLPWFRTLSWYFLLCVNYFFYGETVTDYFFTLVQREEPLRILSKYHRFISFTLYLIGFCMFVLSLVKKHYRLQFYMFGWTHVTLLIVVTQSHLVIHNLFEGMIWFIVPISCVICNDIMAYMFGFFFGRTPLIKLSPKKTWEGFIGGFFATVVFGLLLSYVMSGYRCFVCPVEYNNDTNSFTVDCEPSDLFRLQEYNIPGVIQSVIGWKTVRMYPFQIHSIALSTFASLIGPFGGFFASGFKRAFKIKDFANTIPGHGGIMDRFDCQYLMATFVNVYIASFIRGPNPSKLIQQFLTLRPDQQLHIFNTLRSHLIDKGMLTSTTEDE
Chain of UniProt Q9NXD2 (Q9NXD2 whole entry): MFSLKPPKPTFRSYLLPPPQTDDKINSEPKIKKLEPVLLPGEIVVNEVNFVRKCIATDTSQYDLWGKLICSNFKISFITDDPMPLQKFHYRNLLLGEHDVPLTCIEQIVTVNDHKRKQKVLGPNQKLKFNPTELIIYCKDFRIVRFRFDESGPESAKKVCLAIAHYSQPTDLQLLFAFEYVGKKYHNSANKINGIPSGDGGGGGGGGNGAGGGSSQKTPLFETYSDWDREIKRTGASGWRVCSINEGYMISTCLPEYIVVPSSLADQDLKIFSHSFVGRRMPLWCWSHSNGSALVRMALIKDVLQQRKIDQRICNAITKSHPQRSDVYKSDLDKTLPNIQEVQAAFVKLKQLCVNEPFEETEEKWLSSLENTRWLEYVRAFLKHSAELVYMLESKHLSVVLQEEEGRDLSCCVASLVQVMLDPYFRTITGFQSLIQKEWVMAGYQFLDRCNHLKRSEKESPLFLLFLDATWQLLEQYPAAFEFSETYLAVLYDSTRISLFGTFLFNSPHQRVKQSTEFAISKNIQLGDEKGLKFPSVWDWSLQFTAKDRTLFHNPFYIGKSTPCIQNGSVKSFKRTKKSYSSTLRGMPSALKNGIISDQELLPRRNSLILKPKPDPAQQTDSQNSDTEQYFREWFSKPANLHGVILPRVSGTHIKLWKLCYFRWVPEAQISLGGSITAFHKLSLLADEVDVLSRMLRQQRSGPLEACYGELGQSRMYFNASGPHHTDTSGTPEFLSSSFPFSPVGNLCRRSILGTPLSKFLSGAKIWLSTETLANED
Chain of UniProt Q96CU9 (Q96CU9 whole entry): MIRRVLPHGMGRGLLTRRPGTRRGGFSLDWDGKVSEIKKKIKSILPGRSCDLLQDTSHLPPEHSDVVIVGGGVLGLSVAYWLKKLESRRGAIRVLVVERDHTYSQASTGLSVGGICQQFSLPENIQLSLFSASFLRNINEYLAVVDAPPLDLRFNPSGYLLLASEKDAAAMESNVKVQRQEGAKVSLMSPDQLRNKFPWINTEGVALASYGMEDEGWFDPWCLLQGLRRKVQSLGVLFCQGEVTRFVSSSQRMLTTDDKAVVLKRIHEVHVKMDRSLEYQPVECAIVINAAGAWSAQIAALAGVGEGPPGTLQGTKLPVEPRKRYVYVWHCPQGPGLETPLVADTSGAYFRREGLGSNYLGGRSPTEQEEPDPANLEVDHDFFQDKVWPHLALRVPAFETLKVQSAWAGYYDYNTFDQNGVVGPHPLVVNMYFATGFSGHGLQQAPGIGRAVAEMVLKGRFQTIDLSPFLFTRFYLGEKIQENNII
Chain of UniProt Q96EK6 (Q96EK6 whole entry): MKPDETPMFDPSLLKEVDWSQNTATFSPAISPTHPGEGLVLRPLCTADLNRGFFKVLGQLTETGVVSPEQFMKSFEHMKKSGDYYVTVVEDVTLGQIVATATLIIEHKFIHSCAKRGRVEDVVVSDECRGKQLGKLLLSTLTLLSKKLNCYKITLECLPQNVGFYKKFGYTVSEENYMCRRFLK

Target	thermal stability z-score (lipoamide; [1])	thermal stability z-score (lipoamide; arsenate co-treatment: none)	thermal stability z-score (potassium arsenate)
SNX33 (UniProt Q8WV41)	-0.136	0.0586	-0.148
CEPT1 (UniProt Q9Y6K0)	0.685	0.4	0.959
DRAP1 (UniProt Q14919)	-0.781	-0.122	-0.503
MRPS18B (UniProt Q9Y676)	0.319	0.013	0.102
GTPBP3 (UniProt Q969Y2)	0.357	0.272	0.354
BACH1 (UniProt O14867)	-0.551	-0.333	0.169
WDR45B (UniProt Q5MNZ6)	0.848	0.63	0.162
SNRPGP15|SNRPG	1.63	0.677	0.296
FAM83H (UniProt Q6ZRV2)	-0.0915	0.0556	0.0326
TRAF7 (UniProt Q6Q0C0)	0.0114	-0.686	-1.01
HIST1H1E (UniProt P10412)	0.132	0.627	0.618
OSBPL8 (UniProt Q9BZF1)	-1.47	-1.21	-0.00618
MTMR6 (UniProt Q9Y217)	0.0538	0.0997	-0.39
INPP5K (UniProt Q9BT40)	-0.0181	0.225	0.268
HK1 (UniProt P19367)	0.339	0.466	0.159
CHRAC1 (UniProt Q9NRG0)	-0.123	0.285	-0.28
UBA6	-0.423	-0.209	0.0818
NUDT2 (UniProt P50583)	-0.303	-0.0026	-0.0285
NACC1 (UniProt Q96RE7)	-0.376	-0.495	-0.423
METTL16 (UniProt Q86W50)	-0.248	-0.347	-0.0708
TRIO (UniProt O75962)	-0.939	-0.335	0.0185
MTMR10 (UniProt Q9NXD2)	-0.108	0.0107	-0.188
MTMR1 (UniProt Q13613)	-0.545	-0.803	-1.27
COLGALT1 (UniProt Q8NBJ5)	-4.85	-4.14	0.633

Target	thermal stability z-score (lipoamide; [1])	thermal stability z-score (lipoamide; arsenate co-treatment: none)	thermal stability z-score (potassium arsenate)
TMEM214 (UniProt Q6NUQ4)	-0.283	-0.131	-0.768
CNOT7 (UniProt Q9UIV1)	-0.248	0.895	1.32
NOSIP (UniProt Q9Y314)	-1.04	-0.0974	2.36
SLC27A2 (UniProt O14975)	-0.257	-0.484	0.45
NDUFA7 (UniProt O95182)	0.276	0.141	0.128
IRF3 (UniProt Q14653)	0.883	-0.106	1.13
INTS7 (UniProt Q9NVH2)	0.874	-0.103	-0.0595
JMJD1C (UniProt Q15652)	0.559	-0.396	-0.398
UPF1 (UniProt Q92900)	0.222	-0.246	0.172
DYNLL2 (UniProt Q96FJ2)	0.256	0.641	0.118
YIF1B (UniProt Q5BJH7)	0.452	-0.197	0.898
PRPSAP1 (UniProt Q14558)	0.0495	-0.517	-0.858
FGFR1OP2 (UniProt Q9NVK5)	-0.0532	0.0859	0.0446
EDIL3 (UniProt O43854)	-0.15	-0.528	1.14
MCTP2 (UniProt Q6DN12)	-0.192	-0.145	-0.604
EPHX1 (UniProt P07099)	3.16	3.19	0.24
FAM46A (UniProt Q96IP4)	-0.0743	0.0046	-0.0735
CRIP1 (UniProt P50238)	1.49	1.68	1.18
AGK (UniProt Q53H12)	0.541	0.38	0.573
SLC7A11 (UniProt Q9UPY5)	0.242	0.155	-0.0447
HEBP1 (UniProt Q9NRV9)	0.436	0.615	-0.000791
EIF2S3 (UniProt P41091)	0.159	-0.567	1.34
ERP29 (UniProt P30040)	-0.51	-0.193	0.32
ANO10 (UniProt Q9NW15)	-0.0281	-0.122	-0.262

Target	thermal stability z-score (lipoamide; [1])	thermal stability z-score (lipoamide; arsenate co-treatment: none)	thermal stability z-score (potassium arsenate)
FAM98A (UniProt Q8NCA5)	-0.444	-0.673	-1.6
HSPG2 (UniProt P98160)	0.252	0.126	2.43
TSN (UniProt Q15631)	1.41	1.61	-0.161
OGFR (UniProt Q9NZT2)	0.681	0.943	1.72
PTPRJ (UniProt Q12913)	1.03	-0.0729	-0.764
RABGGTA (UniProt Q92696)	-0.0918	-0.138	-0.000862
ATP6V1E1 (UniProt P36543)	0.0691	-0.201	0.637
RAB3IL1 (UniProt Q8TBN0)	-0.235	0.559	-0.89
CYB5R3 (UniProt P00387)	1.07	-0.079	-0.832
P4HTM (UniProt Q9NXG6)	0.0884	-0.262	-0.0889
FOXRED1 (UniProt Q96CU9)	-0.111	-0.24	0.0548
DNAJA3 (UniProt Q96EY1)	-1.12	-0.564	0.258
POLR2C (UniProt P19387)	0.705	1.15	0.481
FNBP4 (UniProt Q8N3X1)	0.826	1.2	-0.51
CAPN7 (UniProt Q9Y6W3)	0.28	0.65	0.922
RAB10 (UniProt P61026)	0.387	0.379	0.276
GNPNAT1 (UniProt Q96EK6)	0.365	-0.348	-1.03
CDS2 (UniProt O95674)	-0.807	-0.975	-0.43
RARS (UniProt P54136)	-0.341	-0.305	0.39
PTGES2 (UniProt Q9H7Z7)	-0.199	0.0528	0.178
NDRG3 (UniProt Q9UGV2)	-0.101	-0.269	-1.65
PRRC2A (UniProt P48634)	0.431	0.205	-0.13
ATG101 (UniProt Q9BSB4)	-0.67	-1.42	0.678
